{"source": "patent US10278969B2", "about": "“Pharmaceutical dosage forms” (Novartis AG, priority 2013, dated 2019)", "test": "Chemical stability: hydrolysis degradation of the Compound on processing", "assay_type": "physicochemical", "details": "urea bond cleavage into aniline and aminopyrimidine degradants", "from_the_text": "In view of the above mentioned difficulties, the inventors tried to compact the voluminous Compound together with excipients without the use of aqueous media. […] There could be various root causes for the degradation problem. The inventor had run numerous experimental trials to identify the cause.", "data": [{"smiles": "CCN1CCN(c2ccc(Nc3cc(N(C)C(=O)Nc4c(Cl)c(OC)cc(OC)c4Cl)ncn3)cc2)CC1", "note": "[the Compound, 3-(2,6-Dichloro-3,5-dimethoxy-phenyl)-1-{6-[4-(4-ethyl-piperazin-1-yl)-phenylamino]-pyrimidin-4-yl}-1-methyl-urea]", "values": [{"measurement": "Chemical stability (hydrolysis degradation products)", "result": "prone to hydrolysis"}]}]}
